# Laboratory results as given in patent EP1227795B1, “LIPID COMPLEX OF ALKYCYCLINES” (priority 1999, dated 2001).
# Assay: water solubility of the alkycycline
# Format: physicochemical
# Protocol: The alkycycline of formula Ia as defined above is quite water insoluble (less than 0.1 mg/ml). This makes it difficult to be formulated as a sterile, storage stable, dosage form. Additionally, the alkycycline is unstable: • after twelve months at 4°C the decomposition of the bulk product is about from 4 to 6%. This percentage of decomposition is absolutely not acceptable for a pharmaceutical product.
substance,measurement,value
4-demethoxy-3'-deamino-3'-aziridinyl-4'-methansulfonyl daunorubicin [Ia],water solubility,less than 0.1 mg/ml
